Results on six compounds are retold here after patent US5457091A, “N1-substituted 1H-1,2,3-triazolo[4,5,-D]pyrimidines, a process for their preparation and their use as antiviral agents” (priority 1992, dated 1995).

Molecules are shown by their SMILES. Converted amounts (≈) assume the structure as drawn. Where two headings read alike, the source gives them in different places. Bounds are passed on as bounds.

One data set deals with HSV-1 corneae. The data set can be described thus: CPE inhibition, HSV-1 corneae in Vero cells. It is filed as cell-based, type 1 herpes simplex virus. As to conditions: Human alphaherpesvirus 1, MIC = concentration protecting 50% of cells from CPE. The procedure:
(§1) The antiviral activity of the test substances on various human pathogenic DNA and RNA viruses was investigated in cell culture test systems.
(§2) The test substances are diluted in ethanol to a final concentration of 1 mg/ml before the test, and Dulbecco's minimal essential medium (MEM) is used for further dilution steps. For the test, serial 3-fold dilutions of the test substances are made up in 96-well microtiter plates. Monkey kidney cells (Veto) in medium199 (5% FCS) or human embryonic diploid pulmonary fibroblast cells MRC-5 (Whittaker) are added in a concentration of 2×10^4 cells/well and incubated at 37° C. (5% CO2) for 3 h.
(§3) The test mixtures contain the test substance in concentrations from 400 μg/ml to 0.18 μg/ml in MEM supplemented with 4% FCS (HeLa) or 2% FCS (Veto), 100 U/ml penicillin G and 100 μg/ml streptomycin.
(§4) The cells are then infected with type 1 herpes simplex virus (corneas), type I herpes simplex virus VR733, type 1 herpes simplex virus VR539 (hominis), type 2 herpes simplex virus VR734 (MS), human cytomegalovirus VR977 or varicella zoster virus VR586 in concentrations at which the cell lawn is completely destroyed within 3 days (CMV: 7 days, VZV: 10 days) (for example HSV-1 corneae: 0.035 PFU/Vero cell, HSV-2: 0.066 PFU/Vero cell).
(§5) The cultures are incubated at 37° C. in the presence of 5% CO2. All the investigations are carried out as duplicate determinations; controls are determined only once per plate.
(§6) The untreated infection controls show a complete cytopathogenic effect (CPE) after incubation for a further 48 h (HCMV after 6 days, VZV after 9 days). After microscopic inspection of the cell cultures (HSV, HCMV, VZV), they are then stained (only HSV) with neutral red in accordance with the vital staining method of Finter (1966). The antiviral activity of a test substance is defined as the minimum inhibitory concentration (MIC) which is required to protect 50% of the cells from the cytopathogenic effect of the virus.

Another data set has as its system HSV-1 VR733. As to the kind of experiment: CPE inhibition, HSV-1 VR733 in Vero cells. As to conditions: Human alphaherpesvirus 1, MIC = concentration protecting 50% of cells from CPE. It is filed as cell-based, type 1 herpes simplex virus. The protocol:
as §1, §2, §3, §4, §5, §6

In another data set the test system is HSV-1 VR539. As to the kind of experiment: CPE inhibition, HSV-1 VR539 in Vero cells. It is filed as cell-based, type 1 herpes simplex virus. The settings on record: Human alphaherpesvirus 1, MIC = concentration protecting 50% of cells from CPE. The procedure: as §1, §2, §3, §4, §5, §6
For a further data set, the system named is HSV-1 labialis. As to the kind of experiment: CPE inhibition, HSV-1 labialis in Vero cells. Format: cell-based, type 1 herpes simplex virus. As to conditions: Human alphaherpesvirus 1, MIC = concentration protecting 50% of cells from CPE. The protocol:
as §1, §2, §3, §4, §5, §6

The subject of a further data set is HSV-2 VR734. The data set can be described thus: CPE inhibition, HSV-2 VR734 in Vero cells. Format: cell-based, type 2 herpes simplex virus. The settings on record: Human alphaherpesvirus 2, MIC = concentration protecting 50% of cells from CPE. The procedure: as §1, §2, §3, §4, §5, §6
A further data set has as its system HCMV VR977. As to the kind of experiment: CPE inhibition, HCMV VR977 in MRC-5 cells. It is filed as cell-based, human cytomegalovirus. The settings on record: Human betaherpesvirus 5, MRC5, MIC = concentration protecting 50% of cells from CPE. The protocol: as §1, §2, §3, §4, §5, §6
A short description of data set [1]: Cytotoxicity by microscopic inspection, Vero cells. It is filed as cell-based. The settings on record: monkey. The procedure:
as §2, §3, §5
(§7) After incubation for 24 h, the cytotoxicity of the test substances is determined by microscopic inspection of the cell cultures. The maximum tolerated dose (MTD) is designated as the highest concentration of product which, under the said test conditions, is insufficient to cause microscopically detectable cell damage.

Data set [2] can be described thus: Cytotoxicity by microscopic inspection, MRC-5 cells. It is filed as cell-based. The settings on record: human, read-out: MTD (maximum tolerated dose). The procedure: as §2, §3, §5, §7
The subject of another data set is herpesviruses. The data set can be described thus: Antiviral activity against herpesviruses (general statement). The settings on record: in words.
The subject of the next data set is VZV VR586. The data set can be described thus: CPE inhibition, VZV VR586 in MRC-5 cells. It is filed as cell-based, varicella zoster virus. The settings on record: Human alphaherpesvirus 3, MRC5, read-out: MIC VZV VR586. The procedure: as §1, §2, §3, §5
After microscopic inspection of the cell cultures (HSV, HCMV, VZV), they are then stained (only HSV) with neutral red in accordance with the vital staining method of Finter (1966). The antiviral activity of a test substance is defined as the minimum inhibitory concentration (MIC) which is required to protect 50% of the cells from the cytopathogenic effect of the virus.

The test system of another data set is HSV-1. As to the kind of experiment: Therapeutic efficacy in NMRI mice infected intraperitoneally with HSV-1. It is filed as in vivo. The settings on record: for Surviving/group size: observed 2 weeks; for ED50: Human alphaherpesvirus 1, from Reed & Muench, read-out: IC50 (the source's name).
The mark [3] stands for this setting: Vero cells, 24 h, read-out: MTD (maximum tolerated dose).

As to `Nc1nc2c(ncn2COCCO)c(=O)[nH]1` [Aciclovir, reference compound], the EC50 in the data set on HSV-1 corneae is at most 0.98 µg/mL; in the data set with HSV-1 VR733, 0.56 µg/mL (≈ 2.49 µM); in the data set with HSV-1 VR539, 0.98 µg/mL (≈ 4.35 µM); in the data set on HSV-1 labialis it was 0.56 µg/mL (≈ 2.49 µM); in the data set on HSV-2 VR734, at most 0.4 µg/mL; with HCMV VR977 it was 1.16 µg/mL (≈ 5.15 µM). Besides, the MNTC at 24 h in data set [1] (vero cells) and in [2] was at least 400 µg/mL each time.

With `CC(C)OCC(COC(C)C)OCn1nnc2nc(N)ncc21` [Example 7, 5-amino-1H-1-[(1,3-bis-isopropoxy-2-propoxy)methyl]-1,2,3-triazolo[4,5-d]pyrimidine], the activity against herpesviruses result in the data set on herpesviruses was “particularly high activity against herpesviruses”.

For the compound `CC(=O)Nc1ncc2c(nnn2COC(CO)CO)n1` [Example 8, 5-acetamido-1H-1-[(1,3-dihydroxy-2-propoxy)methyl]-1,2,3-triazolo[4,5-d]pyrimidine], the EC50 worked out at 11.5 µg/mL (≈ 40.8 µM) in the data set with HSV-1 corneae; 6.58 µg/mL (≈ 23.3 µM) in the data set with HSV-1 VR733; 24.7 µg/mL (≈ 87.5 µM) in the data set on HSV-1 VR539; 7.68 µg/mL (≈ 27.2 µM) in the data set on HSV-1 labialis; 37 µg/mL (≈ 131 µM) in the data set on HSV-2 VR734; 7.13 µg/mL (≈ 25.3 µM) in the data set with HCMV VR977. Further, the EC50 with VZV VR586 worked out at 0.18 µg/mL (≈ 0.638 µM). For the same compound, the MNTC at 24 h in data set [1] (setting [3]) was at least 333 µg/mL; in [2], at least 311 µg/mL.

For `Nc1ncc2c(nnn2COC(CO)CO)n1` [Example 9, 5-amino-1H-1-[(1,3-dihydroxy-2-propoxy)methyl]-1,2,3-triazolo[4,5-d]pyrimidine], the EC50 is 1.65 µg/mL (≈ 6.87 µM) in the data set with HSV-1 corneae; 1.28 µg/mL (≈ 5.33 µM) with HSV-1 VR733; 4.94 µg/mL (≈ 20.6 µM) with HSV-1 VR539; 1.1 µg/mL (≈ 4.58 µM) with HSV-1 labialis; 2.93 µg/mL (≈ 12.2 µM) with HSV-2 VR734; under 0.27 µg/mL in the data set with HCMV VR977. In the data set on VZV VR586, the EC50 is under 0.18 µg/mL. Besides, the MNTC at 24 h in [1] (setting [3]) is at least 333 µg/mL; in [2], at least 356 µg/mL. The Average survival time with HSV-1 (9 × 3 μmol/kg ip) amounted to 6.3 ± 0.6 days; with HSV-1 (9 × 3 μmol/kg po) it was 8.8 ± 1.6 days; in the data set on HSV-1 (9 × 10 μmol/kg po), 6.2 ± 0.5 days; in the data set with HSV-1 (9 × 30 μmol/kg po), 8.0 ± 1.7 days. For the same compound, the Surviving/group size in the data set with HSV-1 (9 × 3 μmol/kg ip) is listed as 2/5; in the data set on HSV-1 (9 × 3 μmol/kg po), 0/5; in the data set on HSV-1 (9 × 10 μmol/kg ip) it was 5/5; in the data set on HSV-1 (9 × 10 μmol/kg po), 0/5; with HSV-1 (9 × 30 μmol/kg ip) it was 5/5; with HSV-1 (9 × 30 μmol/kg po) it was 0/5. In addition, the values for the ED50 with HSV-1 (ip) and in the data set on HSV-1 (po) were 3.7 µmol/kg and over 30 µmol/kg, respectively. The activity against herpesviruses result in the data set on herpesviruses is “particularly high activity against herpesviruses”.

With `CC(=O)OCC(COC(C)=O)OCn1nnc2nc(N)ncc21` [Example 10, 5-amino-1H-1-[(1,3-diacetoxy-2-propoxy)methyl]-1,2,3-triazolo [4,5-d]pyrimidine], the EC50 was 14.8 µg/mL (≈ 45.7 µM) in the data set with HSV-1 corneae; 11.5 µg/mL (≈ 35.5 µM) in the data set on HSV-1 VR733; 24.7 µg/mL (≈ 76.1 µM) in the data set with HSV-1 VR539; 9.88 µg/mL (≈ 30.5 µM) in the data set with HSV-1 labialis; 24.7 µg/mL (≈ 76.1 µM) in the data set with HSV-2 VR734; under 0.3 µg/mL in the data set with HCMV VR977. The EC50 in the data set with VZV VR586 was under 0.18 µg/mL. In addition, the figures for the MNTC at 24 h in data set [1] (setting [3]) and in data set [2] were at least 311 µg/mL and at least 74.1 µg/mL, respectively. Also, the Average survival time came to 11.0 ± 1.4 days with HSV-1 (9 × 9 μmol/kg ip), 8.8 ± 1.8 days with HSV-1 (9 × 9 μmol/kg po) and 12.0 days with HSV-1 (9 × 31 μmol/kg po). The Surviving/group size with HSV-1 (9 × 9 μmol/kg ip) is listed as 3/5; in the data set with HSV-1 (9 × 9 μmol/kg po), 0/5; with HSV-1 (9 × 31 μmol/kg ip), 5/5; in the data set with HSV-1 (9 × 31 μmol/kg po), 4/5; in the data set on HSV-1 (9 × 93 μmol/kg ip), 5/5; in the data set with HSV-1 (9 × 93 μmol/kg po) it was 5/5. Further, the ED50 was under 9 µmol/kg in the data set on HSV-1 (ip) and 19.7 µmol/kg in the data set on HSV-1 (po). Moreover, in the data set on herpesviruses, the activity against herpesviruses result was “particularly high activity against herpesviruses”.

With `Nc1nc(O)c2ncn(COC(CO)CO)c2n1` [Ganciclovir, reference compound], the EC50 with HSV-1 corneae was 0.85 µg/mL (≈ 3.33 µM); in the data set on HSV-1 VR733, 0.95 µg/mL (≈ 3.72 µM); in the data set with HSV-1 VR539, 1.65 µg/mL (≈ 6.46 µM); in the data set with HSV-1 labialis it was at most 0.18 µg/mL; with HSV-2 VR734, 1.93 µg/mL (≈ 7.56 µM); with HCMV VR977, 0.06 µg/mL (≈ 0.235 µM). The EC50 in the data set on VZV VR586 stood at 6.13 µg/mL (≈ 24 µM). Besides, the MNTC at 24 h in [1] (setting [3]) and in data set [2] was at least 400 µg/mL in each case. Also, the Average survival time was determined as 8.0 ± 0 days with HSV-1 (9 × 3 μmol/kg ip), 11.3 ± 1.5 days in the data set with HSV-1 (9 × 3 μmol/kg po) and 9.5 ± 0.7 days with HSV-1 (9 × 10 μmol/kg po). Also, the Surviving/group size in the data set on HSV-1 (9 × 3 μmol/kg ip) is given as 3/5; in the data set with HSV-1 (9 × 3 μmol/kg po), 1/5; with HSV-1 (9 × 10 μmol/kg ip), 5/5; in the data set on HSV-1 (9 × 10 μmol/kg po) it was 3/5; with HSV-1 (9 × 30 μmol/kg ip), 5/5; in the data set with HSV-1 (9 × 30 μmol/kg po) it was 5/5. For the same compound, the ED50 was under 3 µmol/kg in the data set on HSV-1 (ip) and 6.8 µmol/kg with HSV-1 (po).
